# Tests used:
# [1] = target: amyloid β (Aβ) in cerebral organoids (Homo sapiens, UniProt P05067); experiment: Aβ aggregation/deposition suppression in cerebral organoids (QD-Aβ40/Aβ42, fluorescence microscopy); type: cell-based; conditions: Example 3, 24 hours after addition
# Description: The end of a 1000-μl tip was cut off with sterilized scissors, and the organoids produced in Example 1 that had grown to a diameter of 1 mm or more were aspirated without disrupting them, and transferred to a U-bottom 96-well plate. […]
# The next day, all of the culture supernatant was removed without aspirating the organoid, and 150 μl of fresh NbM medium was added. The cultured organoids were then observed and photographed under a fluorescence microscope.
# Using a fluorescence microscope (BZ-X800 manufactured by KEYENCE CORPORATION), the cultured organoids in Example 2 were photographed in a bright field at a high resolution with an exposure time of 1/500 s to 1/2000 s, or at a high sensitivity with an exposure time of 1/2000 s to 1/5000 s, with Z stacks with a pitch of 20 μm. […] Subsequently, to observe the deposition of quantum dot-modified amyloid β in the cultured organoid, red fluorescence was observed using a TRITC lens at a high sensitivity with an exposure time of ¼ s to 1/8.5 s, and images were obtained according to the procedure described above.
# Each of the images obtained above was analyzed as follows. […] The threshold of the loaded bright-field image was set to 200, and the organoid area (organoid surface area) was calculated. […]
# The black balance level of image processing was adjusted for the fluorescent images of various tests. First, the negative control image was read out. […]
# [2] = tested on: Aβ; conditions: cited from earlier work
# amyloid β (Aβ) in cerebral organoids, sequence (P05067 672-713): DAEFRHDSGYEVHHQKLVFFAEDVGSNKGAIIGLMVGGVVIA
structure (smiles),measurement,setting,value
"O=C(/C=C/c1ccc(O)c(O)c1)O[C@H](Cc1ccc(O)c(O)c1)C(=O)O [rosmarinic acid, Rosmarinic acid]",Effect of suppressing Aβ aggregation/deposition in cerebral organoids (in words),[1],not a drug that has an effect of suppressing Aβ aggregation/deposition in cerebral organoids
same,Aβ aggregation/deposition suppression rate in cerebral organoids,"[1]; rosmarinic acid final 50 μM, QD-Aβ40 30 nM, Aβ42 10 μM",3.9%
same,effect of suppressing Aβ aggregation (known),[2],known to have an effect of suppressing Aβ aggregation
